We go through 3 compounds from ChEMBL document CHEMBL1141814, “Chiral dihydroxylation of acronycine: absolute configuration of natural cis-1,2-dihydroxy-1,2-dihydroacronycine and cytotoxicity of (1R,2R)- and (1S,2S)-1,2-diacetoxy-1,2-dihydroacronycine” (J Nat Prod, 1999).

What is called IC50 is the concentration that inhibits the measured activity by half. A lower IC50 goes with inhibition by little substance.

In this assay the test system is L1210. Briefly: Cytotoxicity against mouse L1210 cells after 48 hrs by […] assay. Type of assay: functional, cell-based. The following applies: L1210, 48 h.
`COc1cc2c(c3c1c(=O)c1ccccc1n3C)[C@H](OC(C)=O)[C@H](OC(C)=O)C(C)(C)O2` returned a 50% inhibitory concentration (IC50) of 3.7 µM.
`COc1cc2c(c3c1c(=O)c1ccccc1n3C)[C@@H](OC(C)=O)[C@@H](OC(C)=O)C(C)(C)O2` yielded an IC50 of 3.1 µM.
As for `COc1cc2c(c3c1c(=O)c1ccccc1n3C)C=CC(C)(C)O2` [ACRONINE], the half-maximal inhibitory concentration (IC50) stood at 10.4 µM.
